# Source: ChEMBL document CHEMBL1136211, “Design of quinolinedione-based geldanamycin analogues” (2003)
# Tests used:
# Assay type in all cases: functional
# [1] = system: Cancer cell lines; assay: Concentration required to kill cells
# [2] = system: Cancer cell lines; assay: Concentration required to inhibit growth of cells in 60 cancer cell lines
# [3] = system: Cancer cell lines; assay: Concentration required to inhibit total growth of cells in 60 cancer cell lines; conditions: read-out: Log TGI (converted)
Compound,LC50 [1] [nM],GI50 [2] [nM],TGI [3] [nM]
O=C1C(NCCCl)=CC(=O)c2nc(-c3ccccc3)ccc21,2040,27.5,324
O=C1C=C(N2CC2)C(=O)c2nc(-c3ccccc3)ccc21,11200,263,1780
O=C1C=C(N2CC2)C(=O)c2nc(-c3ccc4ccccc4c3)ccc21,40700,3470,10700
O=C1C(N2CC2)=CC(=O)c2nc(-c3ccc4ccccc4c3)ccc21,5620,204,1070
O=C1C(N2CC2)=CC(=O)c2nc(-c3ccccc3)ccc21,4070,52.5,513
O=C1C(N2CC2)=CC(=O)c2nc(-c3ccccn3)ccc21,9770,646,2450
O=C1/C(=N/CCO)C=C(O)c2nc(-c3ccccc3)ccc21,60300,2950,20000
